Experimental data reported in paper PMC11161644, “An effective and rapidly degradable disinfectant from disinfection byproducts” (Nature Communications, 2024).
Read-outs that look alike come from different tables or passages of the source.

Columns and labels:
[1] = Degradation in seawater with simulated solar irradiation
Description: The solar photolysis experiments were conducted in a chamber equipped with eight simulated sunlight full-spectrum lamps (BlueMax 5900, Full Spectrum Solutions). The temperature in the chamber was maintained at 20 °C. The total intensity of simulated sunlight was determined using a digital photometer (DT-1010B, Shenzhen Golden Octopus, China). Quartz flasks were positioned in the chamber where the total intensity of simulated sunlight was 4.79 ± 0.04 mW cm^−2 for each quartz flask. […] A DBP was added at 10 mg L^−1 to 50 mL pretreated seawater (pH 8.2) in the quartz flasks and exposed to the simulated solar irradiation for 0‒96 h. Every 8 h, the quartz flasks were rotated in and out of the chamber, and the sample volume was determined and adjusted with ultrapure water to account for any water evaporation. During the solar irradiation experiments, the sample was adjusted to pH 6.2 and 7.2 or maintained at pH 8.2 by adding 4 mM phosphate buffer (pH 6.2, 7.2, and 8.2, respectively).
For the DBP samples with and without sunlight, aliquots were taken at a specific reaction time. The sample aliquots were analyzed using Agilent high-performance liquid chromatography (HPLC) equipped with a Poroshell 120 EC-C18 column (4.6 × 150 mm, 4 µm particle size, Agilent) and a UV detector. The mobile phase, consisting of water (pre-adjusted to pH 2 with phosphoric acid) and acetonitrile at 50/50 (v/v), was applied at a flow rate of 1.0 mL min^−1. PCMX, 2,4-dihalophenols and 5-halosalicylic acids were detected at the wavelength of 230 nm. 2,5-Dihalohydroquinones and 2,6-DCQ were detected at the wavelength of 280 nm. All the degradation experiments were conducted in duplicate.

C. albicans (ATCC 14053) = test: Inactivation of C. albicans (contact time 5 min); type: cell-based, Candida albicans; conditions: for log reduction at 300 µg/mL: Candida albicans, ATCC14053, 5 min, dose 300 mg L-1, pH 7.2, contact time 5 min; for C. albicans inactivation rate constant k / Dose for achieving 3-log inactivation of C. albicans: pH 7.2, contact time 5 min
Description: The chemicals and reagents used are detailed in Supplementary Note 1. The bacteria E. coli (ATCC 25922) and S. aureus (ATCC 25923) were cultured aerobically in Luria-Bertani broth (Sigma-Aldrich) and Tryptone Soya broth (Oxoid), respectively, at 37 °C for 16 h. The fungus C. albicans (ATCC 14053) was aerobically cultured in Sabouraud Dextrose broth (Difco) at 37 °C for 24 h. The microorganism cells were harvested by centrifugation at 1200×g (10 min, 4 °C) and resuspended in phosphate-buffered saline (PBS, 10 mM, pH 7.2). The disinfection experiments were performed in PBS solutions (10 mM, pH 7.2) with an initial concentration of E. coli, S. aureus, or C. albicans of 10^6‒10^7 cells per milliliter. A contact time of 5 min was used in accordance with the recommended time range of 0.25–10 min by USEPA for surface disinfection. Preliminary tests were conducted to determine the appropriate range of DBP doses. The appropriate dose range was established when the lowest and highest doses could achieve <1-log and >3-log of microbial inactivation, respectively. Based on the preliminary results, a series of doses of DBPs were added to the cell suspensions at room temperature (22 ± 1 °C). After the contact time of 5 min, the microorganism cells were enumerated following a membrane filter method. Briefly, serial 10-fold dilutions were conducted for the disinfected samples and the control sample without disinfection. Each diluted suspension was subjected to filtration through 0.45-μm membrane, which was then placed on a petri dish. The Petri dishes containing E. coli, S. aureus, and C. albicans were incubated in m-FC medium (Becton Dickinson & Co) at 45 °C for 24 h, in Tryptone Soya broth at 37 °C for 24 h and in Sabouraud Dextrose broth at 37 °C for 24 h, respectively. After incubation, the colony-forming units within a statistically reasonable range (20–80) were counted.

[2] = test system: bacteriophage MS2 (ATCC 15597-B1); test: Inactivation of bacteriophage MS2 (double-layer agar, contact time 5 min); type: cell-based; conditions: for log reduction at 300 µg/mL: Escherichia phage MS2, ATCC15597, 5 min, dose 300 mg L-1, pH 7.2, contact time 5 min; for Dose for achieving 3-log inactivation of MS2 / MS2 inactivation rate constant k: pH 7.2, contact time 5 min
Description: The bacteriophage MS2 (ATCC 15597-B1) was propagated in the host E. coli (ATCC 15597) in Tryptone Soya broth at 37 °C for 16 h. The viruses were separated from the bacterial debris and purified by centrifuging the phage culture (4000×g, 10 min, 4 °C) and filtering the lysate with a 0.2 μm polyethersulfone sterile filter. The filtrate was then diluted in PBS (10 mM, pH 7.2) to an initial MS2 concentration of 10^9‒10^10 plaque-forming units […]. To initiate the disinfection experiments, a series of DBP doses were added to the MS2 suspension at room temperature (22 ± 1 °C). […] Briefly, serial 10-fold dilutions were conducted for the disinfected samples and the control sample without disinfection. Each dilution was mixed with the host E. coli in the soft agar and the mixture was immediately spread onto a Petri dish with Tryptone Soya agar. After the Petri dishes were incubated at 37 °C for 16 h, the plaque-forming units were counted. The disinfection experiments were performed in duplicate. All the materials for the disinfection experiments were autoclaved before use.

[3] = seawater pH 8.2, solar irradiation, 0 h
[4] = pH 7.2, C. albicans, read-out: Log (N/N0)
[5] = pH 7.2, MS2, read-out: Log (N/N0)
[6] = pretreated seawater under simulated solar irradiation, pH 8.2
[7] = seawater pH 8.2, solar irradiation, 0 min

half-life at 10 mg L−1 [1, 6] [h]	Ln (C/C0) [1, 7]	SMILES	half-life at 10 mg L−1 ([1]; buffer, pH 8.2) [h]	Ln (C/C0) [1, 3]	log reduction at 300 µg/mL (C. albicans (ATCC 14053); [4])	log reduction at 300 µg/mL [2, 5]	C. albicans inactivation rate constant k (C. albicans (ATCC 14053)) [µL/min/mg]	Dose for achieving 3-log inactivation of C. albicans (C. albicans (ATCC 14053)) [mg L−1]	Dose for achieving 3-log inactivation of MS2 [2] [mg L−1]	MS2 inactivation rate constant k [2] [µL/min/mg]	further results
–	–	Oc1ccc(I)cc1I [2,4-DIPh, 2,4-diiodophenol]	83	0	5.49	2.17	–	–	–	–	–
–	–	Oc1ccc(Cl)cc1Cl [2,4-DCPh, 2,4-Dichlorophenol]	45	0	–	–	–	–	–	–	log reduction at 300 µg/mL (C. albicans (ATCC 14053); pH 7.2, read-out: Log (N/N0), C. albicans): 0.236; log reduction at 300 µg/mL ([2]; pH 7.2, read-out: Log (N/N0), MS2): 0.549
0.16	0	Oc1cc(I)c(O)cc1I [2,5-DIHQ, 2,5-diiodohydroquinone]	–	–	0.393	1.11	–	–	–	–	–
–	–	O=C1C=C(Cl)C(=O)C(Cl)=C1 [2,6-DCQ, 2,6-dichlorobenzoquinone]	1.33	0	–	–	31300	35.4	46.1	14200	half-life at 10 mg L−1 ([1]; buffer, pH 6.2): 4.13 h; half-life at 10 mg L−1 ([1]; buffer, pH 7.2): 3.2 h; Degradation rate constant k ([1]; pH 6.2, with solar irradiation): 0.168 h⁻¹; Ln (C/C0) ([1]; pH 6.2 with solar irradiation, 0 h): 0; Degradation rate constant k ([1]; pH 7.2, with solar irradiation): 0.217 h⁻¹; Ln (C/C0) ([1]; pH 7.2 with solar irradiation, 0 h): 0; Degradation rate constant k ([1]; seawater pH 8.2, with solar irradiation): 0.520 h‒1
0.16	0	Oc1cc(Br)c(O)cc1Br [2,5-DBHQ, 2,5-dibromohydroquinone]	–	–	–	–	–	–	–	–	–

SMILES	half-life at 10 mg L−1 [1, 6] [h]	Ln (C/C0) [1, 7]	half-life at 10 mg L−1 ([1]; buffer, pH 8.2) [h]	Ln (C/C0) [1, 3]	log reduction at 300 µg/mL (C. albicans (ATCC 14053); [4])	log reduction at 300 µg/mL [2, 5]	C. albicans inactivation rate constant k (C. albicans (ATCC 14053)) [µL/min/mg]	Dose for achieving 3-log inactivation of C. albicans (C. albicans (ATCC 14053)) [mg L−1]	Dose for achieving 3-log inactivation of MS2 [2] [mg L−1]	MS2 inactivation rate constant k [2] [µL/min/mg]	further results
Cc1cc(O)cc(C)c1Cl [PCMX, para-chloro-meta-xylenol, reference compound]	257	–	–	0	3.49	1.03	3670	320	1010	600	–
